Assays:
[1] = molecular target: T1, Lysine-specific demethylase 3A (Homo sapiens, UniProt Q9Y4C1); assay: Inhibition of KDM3A (unknown origin) expressed in Escherichia coli using H3 (1 to 21 residues) K9Me2-GGK-Biotin KDM3A Cognate Ligand/10 uM alpha-ketoglutarate as substrate/cofactor preincubated for 5 mins followed by substrate addition measured after 20 mins by alphascreen assay
T1 sequence (Q9Y4C1 whole entry): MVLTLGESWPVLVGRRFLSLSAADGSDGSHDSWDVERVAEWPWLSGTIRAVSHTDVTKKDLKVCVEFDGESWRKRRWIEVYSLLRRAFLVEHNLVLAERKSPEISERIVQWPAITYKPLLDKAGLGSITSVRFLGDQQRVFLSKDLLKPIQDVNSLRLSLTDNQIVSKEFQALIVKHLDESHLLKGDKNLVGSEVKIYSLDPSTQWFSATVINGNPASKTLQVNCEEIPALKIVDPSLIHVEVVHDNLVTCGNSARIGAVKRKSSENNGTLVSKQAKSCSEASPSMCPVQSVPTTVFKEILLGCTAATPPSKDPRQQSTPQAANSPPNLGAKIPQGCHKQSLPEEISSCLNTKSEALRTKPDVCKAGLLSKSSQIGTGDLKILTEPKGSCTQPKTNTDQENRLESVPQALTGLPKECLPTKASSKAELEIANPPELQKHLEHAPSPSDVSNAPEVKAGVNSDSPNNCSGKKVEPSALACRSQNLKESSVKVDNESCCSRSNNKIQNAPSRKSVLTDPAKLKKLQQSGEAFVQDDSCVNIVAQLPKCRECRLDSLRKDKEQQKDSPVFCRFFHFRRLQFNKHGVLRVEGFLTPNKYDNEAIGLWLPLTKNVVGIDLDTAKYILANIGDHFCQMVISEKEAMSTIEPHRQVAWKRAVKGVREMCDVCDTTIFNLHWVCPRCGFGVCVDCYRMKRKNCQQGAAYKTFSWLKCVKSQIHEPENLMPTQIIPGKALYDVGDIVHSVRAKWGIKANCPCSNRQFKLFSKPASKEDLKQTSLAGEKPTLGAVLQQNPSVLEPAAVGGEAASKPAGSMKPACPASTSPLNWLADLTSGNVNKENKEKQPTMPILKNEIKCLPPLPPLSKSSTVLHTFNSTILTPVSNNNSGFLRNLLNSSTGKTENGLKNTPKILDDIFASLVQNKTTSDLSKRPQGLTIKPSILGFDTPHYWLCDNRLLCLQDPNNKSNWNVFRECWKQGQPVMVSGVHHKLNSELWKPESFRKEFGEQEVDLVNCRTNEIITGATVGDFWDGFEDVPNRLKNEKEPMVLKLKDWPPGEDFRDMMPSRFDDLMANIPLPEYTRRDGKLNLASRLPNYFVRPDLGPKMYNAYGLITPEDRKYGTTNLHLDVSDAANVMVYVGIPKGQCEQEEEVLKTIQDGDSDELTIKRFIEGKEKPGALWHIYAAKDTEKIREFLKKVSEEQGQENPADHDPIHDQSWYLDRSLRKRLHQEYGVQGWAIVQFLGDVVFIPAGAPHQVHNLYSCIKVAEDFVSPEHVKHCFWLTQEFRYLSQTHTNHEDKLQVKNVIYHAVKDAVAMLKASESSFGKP

[2] = molecular target: T2, Lysine-specific demethylase 4C (Homo sapiens, UniProt Q9H3R0); assay: Competitive inhibition of N-terminal His6-tagged KDM4C (1 to 352 residues) (unknown origin) expressed in Escherichia coli Rosetta 2(DE3)pLysS using 250 uM ARK(Me3)STGGK peptide/50 uM alpha-ketoglutarate as substrate/cofactor by FDH coupling-based Lineweaver-Burk plot analysis
T2 sequence (Q9H3R0 whole entry): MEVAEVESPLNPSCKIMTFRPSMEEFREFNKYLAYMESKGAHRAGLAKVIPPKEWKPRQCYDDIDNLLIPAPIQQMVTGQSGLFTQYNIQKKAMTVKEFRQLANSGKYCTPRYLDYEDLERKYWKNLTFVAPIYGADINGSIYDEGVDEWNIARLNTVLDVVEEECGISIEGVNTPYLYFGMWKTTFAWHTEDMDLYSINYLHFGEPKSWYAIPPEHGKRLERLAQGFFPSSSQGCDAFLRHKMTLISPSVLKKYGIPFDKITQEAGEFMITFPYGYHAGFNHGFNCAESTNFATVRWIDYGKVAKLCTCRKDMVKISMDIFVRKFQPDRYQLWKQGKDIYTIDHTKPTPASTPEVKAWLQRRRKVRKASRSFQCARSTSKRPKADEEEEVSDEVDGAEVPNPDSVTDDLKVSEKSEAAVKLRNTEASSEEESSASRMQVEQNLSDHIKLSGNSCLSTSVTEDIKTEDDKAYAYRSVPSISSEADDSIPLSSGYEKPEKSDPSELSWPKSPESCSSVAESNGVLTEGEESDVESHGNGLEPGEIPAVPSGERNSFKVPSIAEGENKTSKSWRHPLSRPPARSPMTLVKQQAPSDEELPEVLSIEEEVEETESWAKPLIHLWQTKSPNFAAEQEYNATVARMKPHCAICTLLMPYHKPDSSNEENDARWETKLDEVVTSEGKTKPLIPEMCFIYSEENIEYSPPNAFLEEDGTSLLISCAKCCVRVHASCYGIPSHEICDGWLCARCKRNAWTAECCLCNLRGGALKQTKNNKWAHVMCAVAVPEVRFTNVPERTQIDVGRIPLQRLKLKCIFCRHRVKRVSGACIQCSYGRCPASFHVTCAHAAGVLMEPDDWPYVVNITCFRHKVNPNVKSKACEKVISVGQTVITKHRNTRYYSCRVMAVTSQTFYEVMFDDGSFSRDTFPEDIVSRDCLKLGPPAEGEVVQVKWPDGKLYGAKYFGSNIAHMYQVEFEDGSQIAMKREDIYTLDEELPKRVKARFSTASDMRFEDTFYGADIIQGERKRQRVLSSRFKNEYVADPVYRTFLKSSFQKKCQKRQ

[3] = molecular target: T2, Lysine-specific demethylase 4C
[4] = molecular target: T2, Lysine-specific demethylase 4C; assay: Competitive inhibition of N-terminal His6-tagged KDM4C (1 to 352 residues) (unknown origin) expressed in Escherichia coli Rosetta 2(DE3)pLysS using 50 uM ARK(Me3)STGGK peptide/50 uM alpha-ketoglutarate as substrate/cofactor by FDH coupling-based Lineweaver-Burk plot analysis
[5] = molecular target: T2, Lysine-specific demethylase 4C; assay: Competitive inhibition of N-terminal His6-tagged KDM4C (1 to 352 residues) (unknown origin) expressed in Escherichia coli Rosetta 2(DE3)pLysS using 50 uM ARK(Me3)STGGK peptide/5 uM alpha-ketoglutarate as substrate/cofactor by FDH coupling-based Lineweaver-Burk plot analysis

Structure (SMILES)	IC50 [1]	IC50 [2]	Ki [3]	IC50 [4]	IC50 [5]
Cc1cc(C(=O)Nc2ccc(O)c(-c3cc(C(=O)O)ccn3)c2)no1	5.7 µM	–	–	–	–
COc1cccc(CC(=O)Nc2ccc(O)c(-c3cc(C(=O)O)ccn3)c2)c1	9 µM	–	–	–	–
CC(=O)Nc1ccc(O)c(-c2cc(C(=O)O)ccn2)c1	33 µM	–	–	–	–
COCC(=O)Nc1ccc(O)c(-c2cc(C(=O)O)ccn2)c1	11 µM	14.9 µM	0.683 µM	14.2 µM	3.3 µM
O=C(O)c1ccnc(-c2cc(NC(=O)c3ccc(O)cc3)ccc2O)c1	2.3 µM	5.5 µM	0.0432 µM	4.8 µM	1.1 µM
